Our source for the TGI values is PubChem BioAssay (NCI).

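Results reflect a 48-hour exposure of cells in 96-well plates to compound at five concentrations. TGI: concentration producing complete growth inhibition.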 Residues, ends and D or L forms follow the SMILES beside them. *: point of attachment. Boc = CC(C)(C)OC(=O)*; OBn = c1ccc(CO*)cc1 Some results are limits rather than exact numbers.

Test systems include 786-0 renal; NCI/ADR-RES ovarian; SW-620 colon; HT29 colon; NCI-H522 lung; HCT-15 colon; HCT-116 colon; SF-268 CNS; COLO 205 colon; EKVX NSCLC; SK-MEL-5 melanoma.
Common to all, as to assay: NCI-60 cell line screen, 48 h

With `[O-][N+]1=NC(c2ccccc2)=C1c1ccccc1`, the TGI in the experiment on 786-0 renal, with NCI/ADR-RES ovarian, in the experiment with SW-620 colon, with HT29 colon, in the experiment on NCI-H522 lung and with HCT-15 colon was above 50 µM each time. For the same molecule, the TGI in the experiment on HCT-116 colon, with SF-268 CNS, with COLO 205 colon, in the experiment with EKVX NSCLC and in the experiment with SK-MEL-5 melanoma was above 50 µM throughout.

In the case of `N#Cc1c(O)cc(=O)n2c1[nH]c1ccccc12`, the TGI in the experiment with 786-0 renal, in the experiment with NCI/ADR-RES ovarian, in the experiment on SW-620 colon, with HT29 colon, in the experiment on NCI-H522 lung and in the experiment with HCT-15 colon was above 100 µM in each case. In addition, the TGI in the experiment on HCT-116 colon, with SF-268 CNS, in the experiment with COLO 205 colon, with EKVX NSCLC and in the experiment with SK-MEL-5 melanoma was above 100 µM throughout.

As to `COC(=O)c1c[nH]c2c1-c1cc(C(=O)OCc3ccccc3)n(S(=O)(=O)c3ccc(C)cc3)c1C(=O)C2=O`, the TGI in the experiment with 786-0 renal amounted to 1.02 µM; in the experiment on NCI/ADR-RES ovarian it was 6.01 µM; in the experiment with SW-620 colon, 0.576 µM; in the experiment on HT29 colon, 0.418 µM; in the experiment on NCI-H522 lung, 0.607 µM; in the experiment with HCT-15 colon, 0.438 µM. Also, the TGI turned out to be 0.607 µM with HCT-116 colon; 2.27 µM in the experiment with SF-268 CNS; 2.08 µM in the experiment with COLO 205 colon; 0.291 µM in the experiment with EKVX NSCLC; 0.262 µM in the experiment on SK-MEL-5 melanoma.

For the molecule `COc1cc(S(=O)(=O)Nc2ccc(-c3csc(N4C(=O)C(Cl)C4c4ccccc4)n3)cc2)ccc1Cl` (stereo not drawn), the TGI is 49 µM in the experiment with 786-0 renal; above 100 µM in the experiment on NCI/ADR-RES ovarian; above 100 µM with SW-620 colon; above 100 µM in the experiment on HT29 colon; 33.9 µM with NCI-H522 lung; above 100 µM in the experiment on HCT-15 colon. Further, the TGI with HCT-116 colon was above 100 µM; with SF-268 CNS, above 100 µM; with COLO 205 colon, above 100 µM; in the experiment with EKVX NSCLC it was 94.4 µM; with SK-MEL-5 melanoma it was 88.1 µM.

Consider `O=C(O)CNn1c(SCC(=O)O)nnc(/C=C/c2c(O)ccc3ccccc23)c1=O`, for which the TGI with 786-0 renal is above 100 µM; in the experiment on NCI/ADR-RES ovarian it was 67.9 µM; with SW-620 colon, above 100 µM; in the experiment on HT29 colon, above 100 µM; in the experiment with NCI-H522 lung, above 100 µM; with HCT-15 colon, above 100 µM. Also, the TGI in the experiment on HCT-116 colon was above 100 µM; with SF-268 CNS, 97.3 µM; in the experiment on COLO 205 colon, above 100 µM; in the experiment with EKVX NSCLC it was 66.2 µM; in the experiment on SK-MEL-5 melanoma, 42.8 µM.

For `C=CC(Br)(CBr)CCC(Br)C(C)(C)Cl` (stereo not drawn), the TGI with 786-0 renal came to 5.64 µM; in the experiment with NCI/ADR-RES ovarian, 18.6 µM; in the experiment on SW-620 colon, 5.67 µM; in the experiment on HT29 colon it was 2.9 µM; in the experiment on NCI-H522 lung it was 2.79 µM; in the experiment on HCT-15 colon, 6.53 µM. Also, the TGI in the experiment on HCT-116 colon amounted to 3.4 µM; with SF-268 CNS it was 4.51 µM; in the experiment on COLO 205 colon, 4.36 µM; with EKVX NSCLC, 26.8 µM; in the experiment on SK-MEL-5 melanoma it was 23.4 µM.

For `CCOC(=O)c1c(-c2ccc(Br)cc2)ccn1C`, the TGI in the experiment on 786-0 renal, with NCI/ADR-RES ovarian, in the experiment with SW-620 colon, in the experiment on HT29 colon, in the experiment on NCI-H522 lung and with HCT-15 colon was above 10 µM each time. Also, the TGI with HCT-116 colon, in the experiment on SF-268 CNS, in the experiment on COLO 205 colon, in the experiment with EKVX NSCLC and with SK-MEL-5 melanoma was above 10 µM throughout.

As to `CC(C)CC(NC(=O)OC(C)(C)C)C(=O)N1CCCC1C(=O)OCc1ccccc1` (stereo not drawn) (Boc-Leu-Pro-OBn; configuration not given here), the TGI with 786-0 renal, in the experiment with NCI/ADR-RES ovarian, in the experiment with SW-620 colon, with HT29 colon, in the experiment with NCI-H522 lung and with HCT-15 colon was above 100 µM throughout. For the same molecule, the TGI in the experiment on HCT-116 colon, in the experiment on SF-268 CNS, in the experiment on COLO 205 colon, in the experiment with EKVX NSCLC and in the experiment with SK-MEL-5 melanoma was above 100 µM each time.
